Results on ten molecules are retold here after US9169234B2, “Sepiapterin reductase inhibitors for the treatment of pain” (Children's Medical Center Corporation, priority 2009, dated 2015).

Each structure is given as a SMILES string. pIC50: −log10 of the molar value. Where two headings read alike, the source gives them in different places.

The assay deals with recombinant human SPR (Sepiapterin Reductase) (Homo sapiens (Human), UniProt P35270). Nature of the assay: SPR inhibition biochemical assay with chromogenic (OD at 420 nm) and LC/MS (L-biopterin formation) read-out. The procedure: The compounds described herein were screened for activity as inhibitors of Sepiapterin Reductase (SPR).
Chain of recombinant human SPR (Sepiapterin Reductase) (P35270 whole entry): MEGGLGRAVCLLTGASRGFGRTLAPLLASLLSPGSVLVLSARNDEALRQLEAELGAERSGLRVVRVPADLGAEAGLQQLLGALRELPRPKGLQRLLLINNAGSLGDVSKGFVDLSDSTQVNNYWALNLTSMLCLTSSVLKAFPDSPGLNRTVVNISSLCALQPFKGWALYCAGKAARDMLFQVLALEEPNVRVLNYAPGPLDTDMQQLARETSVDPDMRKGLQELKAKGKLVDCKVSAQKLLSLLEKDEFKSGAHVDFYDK
Bacteria were grown at 37° C., and expression of SPR protein was induced for 4 hours.
To screen for SPR inhibition, a biochemical assay based on LC/MS (and chromogenic) read-out has been developed. The LC/MS assay monitors the product formation (L-biopterin) and the chromogenic assay measures OD at 420 nm.
N-methoxyacetyl serotonin was used as a reference compound (positive control).
The exemplary assay protocol uses the following conditions: SPR (6 nM); L-Sepiapterin (50 μM); NADPH (100 μM); Na-Phosphate buffer, pH 6.5 (100 mM); 82 μL assay volume; 60 minutes incubation with compounds (0.5% final concentration in DMSO) at 37° C. in Greiner μClear® 384 well plates.
For example, the compounds of Table 1 were screened using this additional method in triplicate.

Setting [1] is: LC/MS read-out, L-biopterin product formation, SPR 6 nM, L-Sepiapterin 50 μM, NADPH 100 μM, pH 6.5, 60 minutes at 37° C., read-out: IC50 LC/MS.
Setting [2] is: chromogenic read-out, OD at 420 nm, SPR 6 nM, L-Sepiapterin 50 μM, NADPH 100 μM, pH 6.5, 60 minutes at 37° C., read-out: IC50 chromogenic.

With `CC(C)C(=O)NCCc1c[nH]c2ccc(O)cc12` [(1)], the pIC50 is, setting by setting: under setting [1], 6.48; under setting [2], 6.40.

In the case of `O=C(NCCc1c[nH]c2ccc(O)cc12)C1CC1` [(2)], the pIC50 was 6.47 under setting [1] and 6.44 under setting [2].

Regarding `CCOCC(=O)NCCc1c[nH]c2ccc(O)cc12` [(3)], the pIC50 under setting [1] is 5.66 and the pIC50 under setting [2] is 5.55.

For `Oc1ccc2[nH]cc(CCNc3cccnc3)c2c1` [(12)], the pIC50 is, setting by setting: under setting [1], 5.80; under setting [2], 5.68.

In the case of `COCC(=O)NCCc1c[nH]c2ccc(F)cc12` [(16)], the pIC50 is 5.55 under setting [1] and 5.47 under setting [2].

For `COCC(=O)NCCc1c[nH]c2ccc(S(C)(=O)=O)cc12` [(17)], the pIC50 runs as follows: under setting [1], 5.49; under setting [2], 5.35.

On to `COCC(=O)NCCc1cn(C)c2ccc(O)cc12` [(21)], for which the pIC50 was 7.07 under setting [1] and 7.08 under setting [2].

As for `COCC(=O)NCC(=O)c1c[nH]c2ccc(O)cc12` [(24)], the pIC50 reads like this: under setting [1], 6.51; under setting [2], 6.51.

Turning to `COCC(=O)NCCc1cccc(O)c1` [(32)], the pIC50 is, setting by setting: under setting [1], 7.16; under setting [2], 7.19.

As to `COCC(=O)NCCc1c[nH]c2ccc(O)cc12` [N-Methoxyacetyl-Serotonin, reference compound], the pIC50 by setting is: under setting [1], 7.37; under setting [2], 7.38; (reference compound (positive control), read-out not specified, read-out: IC50 measured using the screening conditions) 7.40 to 7.70.
